System: C. albicans SC5314-GFP
Assay: GFP-based adhesion assay
Type: cell-based
Details: Candida albicans, SC5314, read-out: IC50 in the GFP-based adhesion assay
Method: To do this, we measured adhesion of cells plated and washed as before, but here using a C. albicans strain encoding GFP. This allowed us to measure adhesion both in a fluorescence plate reader and by microscopy (FIGS. 1D and 1E). Indeed, these GFP-based assays confirmed that all the compounds effective at 25 μM in the alamarBlue-based assay impair C. albicans adhesion to polystyrene. We conclude that our chemical screen detected multiple compounds that block adhesion to polystyrene, and that these can be assayed via multiple detection methods.
SC5314-GFP and edt1^−/−-GFP strains were pregrown overnight in SC+0.2% glucose media at 30° C., diluted into fresh SC+0.2% glucose media to a final concentration of 5×10^6 cells/ml (equivalent to 0.5 OD600/ml) and plated onto Immulon 2HB 96-well plates, with each well receiving 0.1 OD of cells. DMSO or compounds resuspended in DMSO were added to the desired final concentration (1% vol/vol of DMSO was maintained). Plates were then incubated for 4 hours at 37° C. […] Fluorescence was measured using a Synergy HT plate reader (BioTek) following addition of […] of PBS/well. For each experiment, untagged SC5314 was analyzed simultaneously to determine background fluorescence that was subtracted from the signal from each well.

**Q.** For Cc1ccc(C(=O)N2CCN(c3ccc([N+](=O)[O-])cc3)CC2)cc1Cl [Compound 4], which IC50 is on record?
**A.** ~3 µM

Reference: patent US9648880B2, “Antifungal agents and uses thereof” (University of Massachusetts, priority 2012, dated 2017)
